Counter-ions that a name gives are not always drawn. ± gives the standard deviation of the averaged measurements.
Tested on: HepaRG
Test: LDH release cytotoxicity, % of total lysis control; higher = more cytotoxic
Conditions: 48 h
How it was run: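 The CytoTox-ONE kit was used to read LDH in 50 µL spent medium as resorufin fluorescence on a Tecan Safire, with 0.1% Triton X added to total lysis wells. Beforehand, single-lot HepaRG cells on collagen I-coated 96-well plates had been exposed in duplicate for 48 h to eight-point half-log series (top 100 µM) in serum-free induction medium containing 0.5% DMSO. Percent cytotoxicity was normalized against on-plate vehicle and total lysis controls and averaged over duplicates.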

Compound | LDH release cytotoxicity (0.03162 µM) [%] | LDH release cytotoxicity (0.1 µM) [%] | LDH release cytotoxicity (0.3162278 µM) [%] | LDH release cytotoxicity (1 µM) [%] | LDH release cytotoxicity (3.16228 µM) [%] | LDH release cytotoxicity (10 µM) [%] | LDH release cytotoxicity (31.6228 µM) [%] | LDH release cytotoxicity (100 µM) [%] | LDH release cytotoxicity (0.031623 µM) [%] | LDH release cytotoxicity (0.316228 µM) [%]
CC1COC(Cn2cncn2)(c2ccc(Oc3ccc(Cl)cc3)cc2Cl)O1 (configuration not stated) [Difenoconazole] | -1.39 ± 1.3 | -1.4 ± 0.88 | -1.37 ± 0.096 | -1.47 ± 0.12 | -0.57 ± 1.1 | -0.701 ± 0.24 | -1.41 ± 0.25 | -0.14 ± 0.82 |  | 
Cn1c(-c2ccccc2)cc(-c2ccccc2)[n+]1C [Difenzoquat metilsulfate] | -4.98 ± 0.42 | -4.55 ± 0.57 | -3.76 ± 0.46 | -4.22 ± 0.43 | -3.44 ± 0.93 | -3.6 ± 0.33 | -2.99 ± 2 | -1.18 ± 0.17 |  | 
COc1ccc(-n2nc(C(F)F)cc2-c2ccc(S(C)=O)cc2)cc1 (configuration not stated) [Difpas-pyrazole] | -0.159 ± 0.56 | -0.696 ± 1.1 | -0.216 ± 0.65 | -0.962 ± 0.34 | 0.006 ± 0.28 | 0.216 ± 0.15 | 0.847 ± 0.57 | 78.66 ± 0.17 |  | 
CCCCCCOC(=O)c1ccccc1C(=O)OCCCCCC [Dihexyl phthalate] | -0.113 ± 0.13 | -2.29 ± 0.55 | -1.07 ± 0.072 | -1.78 ± 0.38 | -2.06 ± 0.53 | 4.57 ± 0.29 | 25.3 ± 3.5 | 81 ± 8.9 |  | 
CC(C)COC(=O)CCCCC(=O)OCC(C)C [Diisobutyl adipate] | -1.813 ± 0.015 | -2.01 ± 0.88 | -0.902 ± 0.055 | -2.26 ± 0.4 | -2.38 ± 0.66 | -0.129 ± 0.52 | 7.28 ± 1 | 46.4 ± 4.1 |  | 
CC(C)COC(=O)c1ccccc1C(=O)OCC(C)C [Diisobutyl phthalate] | -2.33 ± 0.23 | -2.4 ± 0.15 | -2.25 ± 0.78 | -2.06 ± 0.78 | -2.34 ± 1.2 | -1.43 ± 1.4 | -2.53 ± 0.83 | -1.03 ± 1.3 |  | 
CC(C)CCCCCCCOC(=O)CCCCC(=O)OCCCCCCCC(C)C [Diisodecyl hexanedioate] | -0.938 ± 0.57 | -1.86 ± 0.81 | -1.91 ± 0.57 | -1.58 ± 0.48 | -1.63 ± 0.72 | -1.13 ± 0.48 | -0.135 ± 0.66 | 0.966 ± 0.73 |  | 
CC(C)CCCCCCOC(=O)C1CCCCC1C(=O)OCCCCCCC(C)C (configuration not stated) [Diisononyl cyclohexane-1,2-dicarboxylate] | -0.786 ± 0.8 | -0.599 ± 0.29 | -1.09 ± 0.054 | -0.000557 ± 0.59 | -0.402 ± 0.22 | 0.246 ± 0.61 | -0.258 ± 0.077 | 1.07 ± 0.34 |  | 
COCC(C)N(C(=O)CCl)c1c(C)csc1C (configuration not stated) [Dimethenamid] |  | -3.31 ± 1.4 |  | -2.95 ± 1.9 | -2.64 ± 2.5 | -3.81 ± 0.44 | -2.28 ± 1 | 0.11 ± 0.34 | -1.73 ± 1.3 | -2.49 ± 1.9
CC1=C(C)S(=O)(=O)CCS1(=O)=O [Dimethipin] | -2.35 ± 1 | -2.52 ± 0.16 | -2.59 ± 0.038 | -3.12 ± 0.25 | -2.6 ± 0.79 | -2.6 ± 0.88 | -2.51 ± 1.3 | -1.52 ± 0.84 |  | 
CNC(=O)CSP(=S)(OC)OC [Dimethoate] | 0.0142 ± 0.81 | 0.0233 ± 0.62 | -0.779 ± 0.49 | -1.24 ± 0.51 | -0.679 ± 0.19 | -0.364 ± 0.63 | 0.327 ± 0.06 | 0.574 ± 0.89 |  | 
COc1ccc(C(=CC(=O)N2CCOCC2)c2ccc(Cl)cc2)cc1OC [Dimethomorph] | -0.689 ± 0.5 | -1.52 ± 0.24 | -1.7 ± 0.055 | -1.1 ± 0.47 | -0.768 ± 0.71 | -0.565 ± 0.54 | -0.618 ± 0.33 | 1.09 ± 0.43 |  | 
CC(=O)OC1CC(C)OC(C)O1 (configuration not stated) [Dimethoxane] | -0.261 ± 1.2 | -0.746 ± 0.9 | -1.64 ± 0.38 | -1.54 ± 0.41 | -1.77 ± 0.27 | -1.72 ± 0.61 | -1.51 ± 0.86 | 4.58 ± 1.8 |  | 
COC(=O)CCCCC(=O)OC [Dimethyl adipate] | 0.892 ± 0.4 | -1.11 ± 0.066 | -1.36 ± 0.49 | -1.52 ± 0.75 | -1.398 ± 0.013 | -1.08 ± 0.68 | -0.702 ± 0.6 | 0.485 ± 0.56 |  | 
COC(=O)CCCC(=O)OC [Dimethyl glutarate] | -0.9 ± 1.2 | -1.35 ± 0.52 | -1.16 ± 1.5 | -1.42 ± 0.98 | -1.03 ± 1.1 | -1.13 ± 0.84 | -1.36 ± 0.88 | 3.2 ± 2.1 |  | 
COC(=O)CC(=O)OC [Dimethyl malonate] | -0.603 ± 0.72 | -0.89 ± 0.63 | -0.395 ± 0.94 | -0.704 ± 0.96 | -0.831 ± 0.86 | -0.0631 ± 0.27 | 0.8 ± 0.35 | 1.4 ± 0.021 |  | 
COC(=O)c1ccccc1C(=O)OC [Dimethyl phthalate] | -0.705 ± 0.12 | -1.99 ± 0.097 | -1.58 ± 0.53 | -2.6 ± 0.29 | -1.11 ± 0.29 | -0.678 ± 0.68 | -0.11 ± 0.75 | 1.18 ± 0.58 |  | 
COC(=O)CCC(=O)OC [Dimethyl succinate] | -1.91 ± 0.15 | -0.897 ± 0.57 | -1.76 ± 0.078 | -2.16 ± 0.17 | -1.84 ± 0.28 | -1.56 ± 0.26 | -1.39 ± 0.24 | 0.319 ± 0.33 |  | 
COS(=O)(=O)OC [Dimethyl sulfate] | -0.536 ± 0.23 | -0.931 ± 0.64 | -1.52 ± 1 | -1.6 ± 0.65 | -1.18 ± 0.15 | -0.291 ± 0.98 | -1.17 ± 1.2 | 3.53 ± 0.11 |  | 

Source: the supplement of paper PMC7840683
